According to patent US7118895B2, “Process for producing aglycon by using diglycosidase and flavor-improved food containing the aglycon and converting agent to be used in the process” (Amano Enzyme Inc., priority 2000, dated 2006):

Test system: Crude diglycosidase
Experiment: Examination of pH in the conversion into isoflavone aglycons by diglycosidase using soybean materials
Format: biochemical, Penicillium multicolor IAM7153
Set-up: Decomposition efficiency of genistin family in soymilk / Decomposition efficiency of genistin family in defatted soybean / Decomposition efficiency of daidzin family in defatted soybean: concentration or dose not given beside the values
Details: for Decomposition efficiency of daidzin family in roasted soy flour: 55° C.
Outline: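 Conversion of glycosides to isoflavone aglycons was followed by HPLC after crude diglycosidase (1.88 AU/mL enzyme solution) acted at 55° C for up to 6 h on four soy materials, 50 mg each, held at pH 2–11.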

[1] = pH4.8, heat treatment of enzyme: no, reaction time 0 h
[2] = pH4.8, heat treatment of enzyme: no, reaction time 1 h
[3] = pH4.8, heat treatment of enzyme: no, reaction time 3 h
[4] = pH4.8, heat treatment of enzyme: no, reaction time 6 h
[5] = pH4.8, heat treatment of enzyme: yes, reaction time 6 h
[6] = pH6.6, heat treatment of enzyme: no, reaction time 0 h
[7] = pH6.6, heat treatment of enzyme: no, reaction time 1 h
[8] = pH6.6, heat treatment of enzyme: no, reaction time 3 h
[9] = pH6.6, heat treatment of enzyme: no, reaction time 6 h
[10] = pH6.6, heat treatment of enzyme: yes, reaction time 6 h

O=C(O)CC(=O)OC[C@H]1O[C@@H](Oc2ccc3c(=O)c(-c4ccc(O)cc4)coc3c2)[C@H](O)[C@@H](O)[C@@H]1O [malonyldaidzin, 6″-O-malonyldaidzin]
Decomposition efficiency of daidzin family in concentrated soybean protein (pH1.6, heat treatment of enzyme: no, reaction time 0 h): not detected | Decomposition efficiency of daidzin family in concentrated soybean protein (pH1.6, heat treatment of enzyme: no, reaction time 1 h): not detected | Decomposition efficiency of daidzin family in concentrated soybean protein (pH1.6, heat treatment of enzyme: no, reaction time 3 h): not detected | Decomposition efficiency of daidzin family in concentrated soybean protein (pH1.6, heat treatment of enzyme: no, reaction time 6 h): not detected | Decomposition efficiency of daidzin family in concentrated soybean protein (pH1.6, heat treatment of enzyme: yes, reaction time 6 h): not detected | Decomposition efficiency of daidzin family in roasted soy flour (pH2, heat treatment of enzyme no, reaction time 0 h): not detected | Decomposition efficiency of daidzin family in roasted soy flour (pH2, heat treatment of enzyme no, reaction time 1 h): not detected | Decomposition efficiency of daidzin family in roasted soy flour (pH2, heat treatment of enzyme no, reaction time 3 h): not detected | Decomposition efficiency of daidzin family in roasted soy flour (pH2, heat treatment of enzyme no, reaction time 6 h): not detected | Decomposition efficiency of daidzin family in roasted soy flour (pH2, heat treatment of enzyme yes, reaction time 6 h): not detected | Decomposition efficiency of daidzin family in soymilk (pH2.3, heat treatment of enzyme: no, reaction time 0 h): 55.1% | Decomposition efficiency of daidzin family in soymilk (pH2.3, heat treatment of enzyme: no, reaction time 1 h): 54.7% | Decomposition efficiency of daidzin family in soymilk (pH2.3, heat treatment of enzyme: no, reaction time 3 h): 51.1% | Decomposition efficiency of daidzin family in soymilk (pH2.3, heat treatment of enzyme: no, reaction time 6 h): 48.5% | Decomposition efficiency of daidzin family in soymilk (pH2.3, heat treatment of enzyme: yes, reaction time 6 h): 51.0% | Decomposition efficiency of daidzin family in defatted soybean (pH2.6, heat treatment of enzyme: no, reaction time 0 h): 41.0% | Decomposition efficiency of daidzin family in defatted soybean (pH2.6, heat treatment of enzyme: no, reaction time 1 h): 41.2% | Decomposition efficiency of daidzin family in defatted soybean (pH2.6, heat treatment of enzyme: no, reaction time 3 h): 41.8% | Decomposition efficiency of daidzin family in defatted soybean (pH2.6, heat treatment of enzyme: no, reaction time 6 h): 40.2% | Decomposition efficiency of daidzin family in defatted soybean (pH2.6, heat treatment of enzyme: yes, reaction time 6 h): 38.9% | Decomposition efficiency of daidzin family in concentrated soybean protein (pH2.7, heat treatment of enzyme: no, reaction time 0 h): not detected | Decomposition efficiency of daidzin family in concentrated soybean protein (pH2.7, heat treatment of enzyme: no, reaction time 1 h): not detected | Decomposition efficiency of daidzin family in concentrated soybean protein (pH2.7, heat treatment of enzyme: no, reaction time 3 h): not detected | Decomposition efficiency of daidzin family in concentrated soybean protein (pH2.7, heat treatment of enzyme: no, reaction time 6 h): not detected | Decomposition efficiency of daidzin family in concentrated soybean protein (pH2.7, heat treatment of enzyme: yes, reaction time 6 h): not detected | Decomposition efficiency of daidzin family in roasted soy flour (pH3, heat treatment of enzyme no, reaction time 0 h): not detected | Decomposition efficiency of daidzin family in roasted soy flour (pH3, heat treatment of enzyme no, reaction time 1 h): not detected | Decomposition efficiency of daidzin family in roasted soy flour (pH3, heat treatment of enzyme no, reaction time 3 h): not detected | Decomposition efficiency of daidzin family in roasted soy flour (pH3, heat treatment of enzyme no, reaction time 6 h): not detected | Decomposition efficiency of daidzin family in roasted soy flour (pH3, heat treatment of enzyme yes, reaction time 6 h): not detected | Decomposition efficiency of daidzin family in defatted soybean (pH3.4, heat treatment of enzyme: no, reaction time 0 h): 41.0% | Decomposition efficiency of daidzin family in defatted soybean (pH3.4, heat treatment of enzyme: no, reaction time 1 h): 39.4% | Decomposition efficiency of daidzin family in defatted soybean (pH3.4, heat treatment of enzyme: no, reaction time 3 h): 34.5% | Decomposition efficiency of daidzin family in defatted soybean (pH3.4, heat treatment of enzyme: no, reaction time 6 h): 29.0% | Decomposition efficiency of daidzin family in defatted soybean (pH3.4, heat treatment of enzyme: yes, reaction time 6 h): 37.1% | Decomposition efficiency of daidzin family in soymilk (pH3.5, heat treatment of enzyme: no, reaction time 0 h): 55.1% | Decomposition efficiency of daidzin family in soymilk (pH3.5, heat treatment of enzyme: no, reaction time 1 h): 35.6% | Decomposition efficiency of daidzin family in soymilk (pH3.5, heat treatment of enzyme: no, reaction time 3 h): 15.1% | Decomposition efficiency of daidzin family in soymilk (pH3.5, heat treatment of enzyme: no, reaction time 6 h): 7.4% | Decomposition efficiency of daidzin family in soymilk (pH3.5, heat treatment of enzyme: yes, reaction time 6 h): 49.1% | Decomposition efficiency of daidzin family in concentrated soybean protein (pH3.7, heat treatment of enzyme: no, reaction time 0 h): not detected | Decomposition efficiency of daidzin family in concentrated soybean protein (pH3.7, heat treatment of enzyme: no, reaction time 1 h): not detected | Decomposition efficiency of daidzin family in concentrated soybean protein (pH3.7, heat treatment of enzyme: no, reaction time 3 h): not detected | Decomposition efficiency of daidzin family in concentrated soybean protein (pH3.7, heat treatment of enzyme: no, reaction time 6 h): not detected | Decomposition efficiency of daidzin family in concentrated soybean protein (pH3.7, heat treatment of enzyme: yes, reaction time 6 h): not detected | Decomposition efficiency of daidzin family in roasted soy flour (pH4, heat treatment of enzyme no, reaction time 0 h): not detected | Decomposition efficiency of daidzin family in roasted soy flour (pH4, heat treatment of enzyme no, reaction time 1 h): not detected | Decomposition efficiency of daidzin family in roasted soy flour (pH4, heat treatment of enzyme no, reaction time 3 h): not detected | Decomposition efficiency of daidzin family in roasted soy flour (pH4, heat treatment of enzyme no, reaction time 6 h): not detected | Decomposition efficiency of daidzin family in roasted soy flour (pH4, heat treatment of enzyme yes, reaction time 6 h): not detected | Decomposition efficiency of daidzin family in defatted soybean [1]: 40.7% | Decomposition efficiency of daidzin family in soymilk [1]: 56.2% | Decomposition efficiency of daidzin family in defatted soybean [2]: 40.5% | Decomposition efficiency of daidzin family in soymilk [2]: 47.4% | Decomposition efficiency of daidzin family in defatted soybean [3]: 36.7% | Decomposition efficiency of daidzin family in soymilk [3]: 33.9% | Decomposition efficiency of daidzin family in defatted soybean [4]: 30.5% | Decomposition efficiency of daidzin family in soymilk [4]: 20.3% | Decomposition efficiency of daidzin family in defatted soybean [5]: 38.4% | Decomposition efficiency of daidzin family in soymilk [5]: 49.7% | Decomposition efficiency of daidzin family in roasted soy flour (pH5, heat treatment of enzyme no, reaction time 0 h): not detected | Decomposition efficiency of daidzin family in roasted soy flour (pH5, heat treatment of enzyme no, reaction time 1 h): not detected | Decomposition efficiency of daidzin family in roasted soy flour (pH5, heat treatment of enzyme no, reaction time 3 h): not detected | Decomposition efficiency of daidzin family in roasted soy flour (pH5, heat treatment of enzyme no, reaction time 6 h): not detected | Decomposition efficiency of daidzin family in roasted soy flour (pH5, heat treatment of enzyme yes, reaction time 6 h): not detected | Decomposition efficiency of daidzin family in concentrated soybean protein (pH5.1, heat treatment of enzyme: no, reaction time 0 h): not detected | Decomposition efficiency of daidzin family in concentrated soybean protein (pH5.1, heat treatment of enzyme: no, reaction time 1 h): not detected | Decomposition efficiency of daidzin family in concentrated soybean protein (pH5.1, heat treatment of enzyme: no, reaction time 3 h): not detected | Decomposition efficiency of daidzin family in concentrated soybean protein (pH5.1, heat treatment of enzyme: no, reaction time 6 h): not detected | Decomposition efficiency of daidzin family in concentrated soybean protein (pH5.1, heat treatment of enzyme: yes, reaction time 6 h): not detected | Decomposition efficiency of daidzin family in defatted soybean (pH5.4, heat treatment of enzyme: no, reaction time 0 h): 40.7% | Decomposition efficiency of daidzin family in defatted soybean (pH5.4, heat treatment of enzyme: no, reaction time 1 h): 44.2% | Decomposition efficiency of daidzin family in defatted soybean (pH5.4, heat treatment of enzyme: no, reaction time 3 h): 41.5% | Decomposition efficiency of daidzin family in defatted soybean (pH5.4, heat treatment of enzyme: no, reaction time 6 h): 36.9% | Decomposition efficiency of daidzin family in defatted soybean (pH5.4, heat treatment of enzyme: yes, reaction time 6 h): 44.9% | Decomposition efficiency of daidzin family in soymilk (pH6.2, heat treatment of enzyme: no, reaction time 0 h): 56.2% | Decomposition efficiency of daidzin family in soymilk (pH6.2, heat treatment of enzyme: no, reaction time 1 h): 54.1% | Decomposition efficiency of daidzin family in soymilk (pH6.2, heat treatment of enzyme: no, reaction time 3 h): 46.4% | Decomposition efficiency of daidzin family in soymilk (pH6.2, heat treatment of enzyme: no, reaction time 6 h): 41.9% | Decomposition efficiency of daidzin family in soymilk (pH6.2, heat treatment of enzyme: yes, reaction time 6 h): 49.7% | Decomposition efficiency of daidzin family in roasted soy flour (pH6.5, heat treatment of enzyme no, reaction time 0 h): not detected | Decomposition efficiency of daidzin family in roasted soy flour (pH6.5, heat treatment of enzyme no, reaction time 1 h): not detected | Decomposition efficiency of daidzin family in roasted soy flour (pH6.5, heat treatment of enzyme no, reaction time 3 h): not detected | Decomposition efficiency of daidzin family in roasted soy flour (pH6.5, heat treatment of enzyme no, reaction time 6 h): not detected | Decomposition efficiency of daidzin family in roasted soy flour (pH6.5, heat treatment of enzyme yes, reaction time 6 h): not detected | Decomposition efficiency of daidzin family in concentrated soybean protein [6]: not detected | Decomposition efficiency of daidzin family in defatted soybean [6]: 43.1% | Decomposition efficiency of daidzin family in concentrated soybean protein [7]: not detected | Decomposition efficiency of daidzin family in defatted soybean [7]: 45.9% | Decomposition efficiency of daidzin family in concentrated soybean protein [8]: not detected | Decomposition efficiency of daidzin family in defatted soybean [8]: 44.0% | Decomposition efficiency of daidzin family in concentrated soybean protein [9]: not detected | Decomposition efficiency of daidzin family in defatted soybean [9]: 41.8% | Decomposition efficiency of daidzin family in concentrated soybean protein [10]: not detected | Decomposition efficiency of daidzin family in defatted soybean [10]: 41.2% | Decomposition efficiency of daidzin family in soymilk (pH7.2, heat treatment of enzyme: no, reaction time 0 h): 56.1% | Decomposition efficiency of daidzin family in soymilk (pH7.2, heat treatment of enzyme: no, reaction time 1 h): 56.4% | Decomposition efficiency of daidzin family in soymilk (pH7.2, heat treatment of enzyme: no, reaction time 3 h): 52.4% | Decomposition efficiency of daidzin family in soymilk (pH7.2, heat treatment of enzyme: no, reaction time 6 h): 48.2% | Decomposition efficiency of daidzin family in soymilk (pH7.2, heat treatment of enzyme: yes, reaction time 6 h): 48.3% | Decomposition efficiency of daidzin family in defatted soybean (pH7.8, heat treatment of enzyme: no, reaction time 0 h): 42.0% | Decomposition efficiency of daidzin family in defatted soybean (pH7.8, heat treatment of enzyme: no, reaction time 1 h): 43.6% | Decomposition efficiency of daidzin family in defatted soybean (pH7.8, heat treatment of enzyme: no, reaction time 3 h): 41.4% | Decomposition efficiency of daidzin family in defatted soybean (pH7.8, heat treatment of enzyme: no, reaction time 6 h): 38.7% | Decomposition efficiency of daidzin family in defatted soybean (pH7.8, heat treatment of enzyme: yes, reaction time 6 h): 36.7% | Decomposition efficiency of daidzin family in roasted soy flour (pH8.5, heat treatment of enzyme no, reaction time 0 h): not detected | Decomposition efficiency of daidzin family in roasted soy flour (pH8.5, heat treatment of enzyme no, reaction time 1 h): not detected | Decomposition efficiency of daidzin family in roasted soy flour (pH8.5, heat treatment of enzyme no, reaction time 3 h): not detected | Decomposition efficiency of daidzin family in roasted soy flour (pH8.5, heat treatment of enzyme no, reaction time 6 h): not detected | Decomposition efficiency of daidzin family in roasted soy flour (pH8.5, heat treatment of enzyme yes, reaction time 6 h): not detected | Decomposition efficiency of daidzin family in concentrated soybean protein (pH8.6, heat treatment of enzyme: no, reaction time 0 h): not detected | Decomposition efficiency of daidzin family in concentrated soybean protein (pH8.6, heat treatment of enzyme: no, reaction time 1 h): not detected | Decomposition efficiency of daidzin family in concentrated soybean protein (pH8.6, heat treatment of enzyme: no, reaction time 3 h): not detected | Decomposition efficiency of daidzin family in concentrated soybean protein (pH8.6, heat treatment of enzyme: no, reaction time 6 h): not detected | Decomposition efficiency of daidzin family in concentrated soybean protein (pH8.6, heat treatment of enzyme: yes, reaction time 6 h): not detected | Decomposition efficiency of daidzin family in soymilk (pH11.6, heat treatment of enzyme: no, reaction time 0 h): 52.5% | Decomposition efficiency of daidzin family in soymilk (pH11.6, heat treatment of enzyme: no, reaction time 1 h): 56.4% | Decomposition efficiency of daidzin family in soymilk (pH11.6, heat treatment of enzyme: no, reaction time 3 h): 50.4% | Decomposition efficiency of daidzin family in soymilk (pH11.6, heat treatment of enzyme: no, reaction time 6 h): 47.7% | Decomposition efficiency of daidzin family in soymilk (pH11.6, heat treatment of enzyme: yes, reaction time 6 h): 46.1%
